Test results published in patent US20190134120A1, “METHODS FOR THE TREATMENT OF BLADDER CANCER” (Viralytics Limited, priority 2013, published 2019).
Like-named read-outs stand apart in the source and are kept apart here.

Legend:
[1] = tested on: human bladder tumor tissue; assay: Ex vivo infection of human bladder tumour tissue by CVA21 (immunostaining); conditions: 3.875x10^6 TCID50 CVA21; 48 hours post infection
Procedure: Primary bladder cancer tissue was received from the operating theatre of the Royal Surrey County Hospital UK in a dry pot. The tissue was cut into small pieces of between 2-4 mm and placed in 0.5 ml 10% FCS/DMEM with Pen/Strep and GLUT containing 3.875×10^6 TCID50 of CVA21. The infected tissue was incubated at 37° C., 5% CO2 for 48 hrs. Tissue was then fixed in 10% neutral buffered formalin for 18-24 hours.
Tissue pieces originating from the same human bladder tumour were either infected with CVA21 or left uninfected. Immunofluorescence and immunostaining for coxsackievirus was performed 48 hours post infection.
In brief, bladder cancer tissue was fixed using 10% neutral buffered formalin for 18-24 hours. After fixation, the tissue block was embedded in paraffin, and 4 μm sections cut and affixed onto slides. The sections were dried overnight at 37° C., deparaffinized, and rehydrated. Endogenous peroxidase was blocked using methanol/0.3% H202 for 20 min. The sections were then subjected to heat mediated antigen retrieval in a microwave using citrate buffer (10 mM, pH 6.0). Following washing, the slides were blocked with 2.5% horse serum and endogenous biotin blocked using an Avidin/Biotin blocking kit (SP-2001, VectorLabs) according to the manufacturer's instructions. […]

bladder cell line T24 = assay: Synergy between MMC and CVA21, dose matrix, T24 cells; type: cell-based, Human; conditions: CVA21 (0-50 TCID50/cell) with MMC (0-3.36 ug/ml), at low mitomycin concentrations, especially below 0.2 ug/ml
Procedure: (§1) In brief, 5637/T24/TCCSUP-1 cells were plated at 1×10^4 cells per well (100 μL) of a 96 well tray and incubated at 37° C. for 24 hrs. Mitomycin C was diluted in 10% FCS medium in doubling dilutions from between 2.8 to 0.02 ug/ml for 5637 cells and between 3.36 to 0.03 ug/ml for T24 cells. CVA21 was then diluted between MOI 25-0.196 in doubling dilutions using each dilution of Mitomycin C. The cells were then treated with each dilution of CVA21/Mitomycin C and incubated for 72 hrs. The medium was removed and 100 μl of diluted MTS reagent (Promega) was added. The plates were then incubated for 1-4 hrs and absorbance read at 492 nm.

[2] = tested on: bladder cancer cell line 5637; assay: Synergy between CVA21 and MMC, dose matrix, 5637 cells; type: cell-based, Human; conditions: MMC 0 to 2.8 ug/ml
Procedure: as §1

[3] = tested on: late stage melanoma patients; conditions: Phase II, intralesional treatment, cited from earlier work
[4] = tested on: late stage melanoma patients; conditions: Phase I, intratumorally administered, cited from earlier work
[5] = type: physicochemical, Human; conditions: 3x10^6 TCID50; 37 C for one hour in healthy donor urine
Procedure: Human cancer bladder tissue was disaggregated and primary tumour cells were isolated. These were tested for bladder tumour markers (Cytokeratin 7) (data not shown). Primary tumour cells were infected at varying MOIs and incubated at 37 C for 72 hours then photographed and analysed by MTS ([3-(4,5-dimethylthiazol-2-yl)-5-(3-carboxymethoxyphenyl)-2-(4-sulfophenyl)-2H-tetrazolium, inner salt) assay. (A) CVA21 MOI 3. (B) Uninfected cells. (C) MTS assay. (D) CVA21 (3×10^6 TCID50) was incubated at 37 C for one hour in healthy donor urine. Resulting virus was titrated by TCID50 on SK-MEL-28 cells for 5 days.
In brief, SK-MEL-28 cells were plated at 1×10^4 cells per well (100 μL) of a 96 well tray in 10% DMEM and incubate at 37° C. o/n. 37.5 ul of stock CVA21 virus (7.75e7 TCID50/ml) was added 462.5 ul of normal health urine or Hanks or PBS or HANKS for 1 hrs at 37° C. After which urine/CVA21 was serially diluted 1:10 in 2% DMEM. The media was removed from the cells and 100 ul of each dilution was added to one of ten wells. The assay was then incubated at 37° C. for 5 days, after which the media was removed from the cells and 100 ul of 0.1% Glutaldehyde (Sigma) in PBS was added. […]. TCID50 is calculated by the Spearman & Kärber algorithm as described in Hierholzer & Killington (1996), Virology Methods Manual, p. […]

5637 cells = assay: Synergy between CVA21 and radiotherapy, 5637 cells; type: cell-based, Human; conditions: 5637 cells irradiated (4-10 Gy)
Procedure: Combining CVA21 with the radiotherapy has shown exceptional synergy. When 5637 cells were irradiated (4-10 Gy) then 24 hours later exposed to CVA21 (multiplicities of infection 0.961-12.6), clear synergy was seen (FIG. 3a). […] A comprehensive experimental and analytic method was implemented for this work which allows calculation of combination index values at all data points, and therefore identification of areas of high synergy across the whole response surface (Greco et al. 1995) (FIGS. 3b, 3c).
In brief, T24/5637 cells were plated at 0.25×10^4/0.5×10^4 cells per well (100 μL) of a 96 well tray and incubated at 37° C. for 24 hrs. Day 2—An extra 100 ul 10% FCS, media was added to the cells. Then they were treated with Rad (Gy 0, 4, 6, 8, 10) on a clinical Varian linear accelerator in St Luke's Cancer Centre, Royal Surrey Hospital UK. Day 2—The plates were returned to the lab and incubated at 37° C. for 24 hrs. Day 3—The medium was removed and 100 ul of CVA21 (MOI 12.5-0.1 in 2% FCS medium) was added and incubated at 37° C. for 72 hrs. Day 6—The medium was removed and 100 μl of fresh 10% FCS medium added and incubated for 24 hrs. Day 7—The medium was removed and 100 μl of diluted MTS reagent (Promega) was added. The plates were then incubated for 1-2 hr and read absorbance at 492 nm. […]

VMCUB-1 cells = assay: CVA21 cytotoxicity, VMCUB-1 cells; type: cell-based, Human; conditions: FIG. 2b

## Coxsackievirus A21 [CVA21]
[1]
  infectability of ex-vivo tumour tissue: highly infectable
Bladder cell line T24
  CI values: < 1
[2]
  interaction of CVA21 with MMC: Synergy
[3]
  tolerability: generally being well-tolerated
[3]; late stage melanoma
  clinical activity: activity in both injected lesions and non-injected distant lesions
[4]; humans
  tolerability: well tolerated
[4]; late stage melanoma
  patients with stabilization or reduction in injected tumour volumes: 55.55%
[5]
  stability in human urine: stable
5637 cells; 24 hours later CVA21
  interaction of CVA21 with radiation: clear synergy
5637 cells; 24 hours later exposed to CVA21 (MOI 0.961-12.6), dose matrix analysis
  combination indices, minima: approximately 0.4
VMCUB-1 cells
  susceptibility of cell line to CVA21: resistant
